According to patent publication EP0394122A2, “Use of tetracyclines to manufacture a medicament for the treatment and prevention of AIDS” (priority 1989, dated 1990):

Assays:
[1] = test system: lignée lymphoblastoïde CEM clone 13; assay: Cytotoxicity on non-infected CEM clone 13 cells (MTT viability); format: cell-based, humaines
Experimental: (§1) Dans une microplaque de 96 puits on dépose 25 µl/puits d'une solution de produit à tester ou de tampon phosphate isotonique (TPI) dans le cas des contrôles. Les produits sont étudiés à différentes concentrations (souvent 8), à raison de 4 puits par concentration. On ajoute alors 125 µl d'une suspension de cellules CEM dans le milieu RPMI contenant 10 % de sérum de veau foetal, 40 U/ml de pénicilline, 40 µg/ml de streptomycine et 5 µg/ml de polybrène (3500 cellules par puits) et les microplaques sont incubées une heure à 37°C, sous une atmosphère contenant 5 % de gaz carbonique. Pour chaque concentration, l'essai est partagé en 2 parties : une partie sur cellules infectées, pour la détermination de l'activité antivirale et l'autre partie sur cellules non infectées, pour déterminer la cytotoxicité des produits. On infecte alors la première série avec HIV (100 µl par puit d'une suspension de virus LAV-1-BRU contenant 200-300 TCID50) tandis que l'autre série reçoit 100 µl de milieu RPMI tel que défini précédemment. Au bout de 7 jours d'incubation, 175 µl de surnageant sont prélevés et rejetés. La viabilité cellulaire est déterminée selon une modification de la technique décrite par R. Pauwels et coll., J. Virol.
(§2) Les puits, contenant encore les cellules (infectées ou non infectées), reçoivent 10 µl d'une solution de MTT (méthylthiazoletétrazolium) à 5 mg/ml dans du tampon phosphate isotonique. Pendant une période d'incubation de 4 heures, le MTT est converti en un sel de formazan (bleu) à l'intérieur des cellules vivantes et proportionnellement à leur nombre, alors que rien n'apparaît dans les puits ne contenant plus que des cellules mortes. On ajoute alors 120 µl d'isopropanol (contenant 0,04 mole/l d'acide chlorhydrique) et les microplaques sont agitées jusqu'à la solubilisation du bleu de formazan. L'absorption à 540 nm est lue avec un lecteur automatique de réactions ELISA en microplaques.
(§3) Pour les essais de plus longue durée, on procède comme décrit précédemment jusqu'au jour 7. A ce moment, 100 µl de cellules sont prélevés pour mesurer la proportion de cellules vivantes et le restant est remis en culture avec du milieu frais contenant les produits aux mêmes concentrations. Cette opération est répétée tous les 4 jours.

virus HIV (LAV-1-BRU) = assay: Protection against the cytopathogenic effect of HIV in infected CEM clone 13 cells (MTT viability); format: cell-based
Experimental: as §1, with “Le test est réalisé sur la lignée lymphoblastoïde CEM clone 13. Dans” for “Dans”, “Virol. Meth., 20, 309-321 (1988).” for “Virol.”
as §2, §3

Compound: doxycycline [Exemple 2]
- Cellules non infectées Densité optique ([1]; 0,01 µg/ml, JOUR 14): 0,980
- Cellules non infectées Densité optique ([1]; 0,01 µg/ml, JOUR 18): 1,100
- Cellules non infectées Densité optique ([1]; 0,01 µg/ml, day 7): 1,530
- Cellules non infectées Densité optique ([1]; 0,04 µg/ml, JOUR 14): 0,950
- Cellules non infectées Densité optique ([1]; 0,04 µg/ml, JOUR 18): 1,050
- Cellules non infectées Densité optique ([1]; 0,04 µg/ml, day 7): 1,34
- Cellules non infectées Densité optique ([1]; 0,12 µg/ml, JOUR 14): 1,020
- Cellules non infectées Densité optique ([1]; 0,12 µg/ml, JOUR 18): 1,020
- Cellules non infectées Densité optique ([1]; 0,12 µg/ml, day 7): 1,53
- Cellules non infectées Densité optique ([1]; 0,37 µg/ml, JOUR 14): 1,000
- Cellules non infectées Densité optique ([1]; 0,37 µg/ml, JOUR 18): 1,000
- Cellules non infectées Densité optique ([1]; 0,37 µg/ml, day 7): 1,60
- Cellules non infectées Densité optique ([1]; 10 µg/ml, JOUR 14): 0,100
- Cellules non infectées Densité optique ([1]; 10 µg/ml, JOUR 18): 0,100
- Cellules non infectées Densité optique ([1]; 10 µg/ml, day 7): 0,740
- Cellules non infectées Densité optique ([1]; 30 µg/ml, day 7): 0,2
- Cellules non infectées Densité optique ([1]; 1,11 µg/ml, JOUR 14): 0,960
- Cellules non infectées Densité optique ([1]; 1,11 µg/ml, JOUR 18): 1,020
- Cellules non infectées Densité optique ([1]; 1,11 µg/ml, day 7): 1,50
- Cellules non infectées Densité optique ([1]; 3,33 µg/ml, JOUR 14): 0,950
- Cellules non infectées Densité optique ([1]; 3,33 µg/ml, JOUR 18): 0,950
- Cellules non infectées Densité optique ([1]; 3,33 µg/ml, day 7): 1,50
- Cellules infectées Densité optique (virus HIV (LAV-1-BRU); 0,01 µg/ml, JOUR 14): 0,250
- Cellules infectées Densité optique (virus HIV (LAV-1-BRU); 0,01 µg/ml, JOUR 18): 0,240
- Cellules infectées Densité optique (virus HIV (LAV-1-BRU); 0,01 µg/ml, day 7): 0,820
- Cellules infectées Densité optique (virus HIV (LAV-1-BRU); 0,04 µg/ml, JOUR 14): 0,300
- Cellules infectées Densité optique (virus HIV (LAV-1-BRU); 0,04 µg/ml, JOUR 18): 0,275
- Cellules infectées Densité optique (virus HIV (LAV-1-BRU); 0,04 µg/ml, day 7): 0,785
- Cellules infectées Densité optique (virus HIV (LAV-1-BRU); 0,12 µg/ml, JOUR 14): 0,450
- Cellules infectées Densité optique (virus HIV (LAV-1-BRU); 0,12 µg/ml, JOUR 18): 0,250
- Cellules infectées Densité optique (virus HIV (LAV-1-BRU); 0,12 µg/ml, day 7): 0,720
- Cellules infectées Densité optique (virus HIV (LAV-1-BRU); 0,37 µg/ml, JOUR 14): 0,550
- Cellules infectées Densité optique (virus HIV (LAV-1-BRU); 0,37 µg/ml, JOUR 18): 0,300
- Cellules infectées Densité optique (virus HIV (LAV-1-BRU); 0,37 µg/ml, day 7): 1,000
- Cellules infectées Densité optique (virus HIV (LAV-1-BRU); 10 µg/ml, JOUR 14): 0,100
- Cellules infectées Densité optique (virus HIV (LAV-1-BRU); 10 µg/ml, JOUR 18): 0,100
- Cellules infectées Densité optique (virus HIV (LAV-1-BRU); 10 µg/ml, day 7): 0,660
- Cellules infectées Densité optique (virus HIV (LAV-1-BRU); 30 µg/ml, day 7): 0,200
- Cellules infectées Densité optique (virus HIV (LAV-1-BRU); 1,11 µg/ml, JOUR 14): 0,880
- Cellules infectées Densité optique (virus HIV (LAV-1-BRU); 1,11 µg/ml, JOUR 18): 0,700
- Cellules infectées Densité optique (virus HIV (LAV-1-BRU); 1,11 µg/ml, day 7): 1,240
- Cellules infectées Densité optique (virus HIV (LAV-1-BRU); 3,33 µg/ml, JOUR 14): 0,750
- Cellules infectées Densité optique (virus HIV (LAV-1-BRU); 3,33 µg/ml, JOUR 18): 0,750
- Cellules infectées Densité optique (virus HIV (LAV-1-BRU); 3,33 µg/ml, day 7): 1,370

Compound: CN(C)c1ccc(O)c2c1C[C@H]1C[C@H]3[C@H](N(C)C)C(O)=C(C(N)=O)C(=O)[C@@]3(O)C(O)=C1C2=O [Exemple 5, minocycline]
- Cellules non infectées Densité optique ([1]; 0,01 µg/ml, JOUR 14): 1,100
- Cellules non infectées Densité optique ([1]; 0,01 µg/ml, JOUR 18): 1,050
- Cellules non infectées Densité optique ([1]; 0,01 µg/ml, day 7): 1,590
- Cellules non infectées Densité optique ([1]; 0,04 µg/ml, JOUR 14): 1,250
- Cellules non infectées Densité optique ([1]; 0,04 µg/ml, JOUR 18): 1,050
- Cellules non infectées Densité optique ([1]; 0,04 µg/ml, day 7): 1,650
- Cellules non infectées Densité optique ([1]; 0,12 µg/ml, JOUR 14): 1,200
- Cellules non infectées Densité optique ([1]; 0,12 µg/ml, JOUR 18): 1,100
- Cellules non infectées Densité optique ([1]; 0,12 µg/ml, day 7): 1,750
- Cellules non infectées Densité optique ([1]; 0,37 µg/ml, JOUR 14): 1,250
- Cellules non infectées Densité optique ([1]; 0,37 µg/ml, JOUR 18): 1,150
- Cellules non infectées Densité optique ([1]; 0,37 µg/ml, day 7): 1,670
- Cellules non infectées Densité optique ([1]; 10 µg/ml, JOUR 14): 0,100
- Cellules non infectées Densité optique ([1]; 10 µg/ml, JOUR 18): 0,100
- Cellules non infectées Densité optique ([1]; 10 µg/ml, day 7): 0,480
- Cellules non infectées Densité optique ([1]; 30 µg/ml, day 7): 0,420
- Cellules non infectées Densité optique ([1]; 1,11 µg/ml, JOUR 14): 1,200
- Cellules non infectées Densité optique ([1]; 1,11 µg/ml, JOUR 18): 1,100
- Cellules non infectées Densité optique ([1]; 1,11 µg/ml, day 7): 1,760
- Cellules non infectées Densité optique ([1]; 3,33 µg/ml, JOUR 14): 0,350
- Cellules non infectées Densité optique ([1]; 3,33 µg/ml, JOUR 18): 0,400
- Cellules non infectées Densité optique ([1]; 3,33 µg/ml, day 7): 1,650
- Cellules infectées Densité optique (virus HIV (LAV-1-BRU); 0,01 µg/ml, JOUR 14): 0,300
- Cellules infectées Densité optique (virus HIV (LAV-1-BRU); 0,01 µg/ml, JOUR 18): 0,250
- Cellules infectées Densité optique (virus HIV (LAV-1-BRU); 0,01 µg/ml, day 7): 0,660
- Cellules infectées Densité optique (virus HIV (LAV-1-BRU); 0,04 µg/ml, JOUR 14): 0,450
- Cellules infectées Densité optique (virus HIV (LAV-1-BRU); 0,04 µg/ml, JOUR 18): 0,250
- Cellules infectées Densité optique (virus HIV (LAV-1-BRU); 0,04 µg/ml, day 7): 0,720
- Cellules infectées Densité optique (virus HIV (LAV-1-BRU); 0,12 µg/ml, JOUR 14): 0,620
- Cellules infectées Densité optique (virus HIV (LAV-1-BRU); 0,12 µg/ml, JOUR 18): 0,450
- Cellules infectées Densité optique (virus HIV (LAV-1-BRU); 0,12 µg/ml, day 7): 0,890
- Cellules infectées Densité optique (virus HIV (LAV-1-BRU); 0,37 µg/ml, JOUR 14): 1,250
- Cellules infectées Densité optique (virus HIV (LAV-1-BRU); 0,37 µg/ml, JOUR 18): 1,000
- Cellules infectées Densité optique (virus HIV (LAV-1-BRU); 0,37 µg/ml, day 7): 1,210
- Cellules infectées Densité optique (virus HIV (LAV-1-BRU); 10 µg/ml, JOUR 14): 0,100
- Cellules infectées Densité optique (virus HIV (LAV-1-BRU); 10 µg/ml, JOUR 18): 0,100
- Cellules infectées Densité optique (virus HIV (LAV-1-BRU); 10 µg/ml, day 7): 0,450
- Cellules infectées Densité optique (virus HIV (LAV-1-BRU); 30 µg/ml, day 7): 0,320
- Cellules infectées Densité optique (virus HIV (LAV-1-BRU); 1,11 µg/ml, JOUR 14): 1,250
- Cellules infectées Densité optique (virus HIV (LAV-1-BRU); 1,11 µg/ml, JOUR 18): 0,950
- Cellules infectées Densité optique (virus HIV (LAV-1-BRU); 1,11 µg/ml, day 7): 1,510
- Cellules infectées Densité optique (virus HIV (LAV-1-BRU); 3,33 µg/ml, JOUR 14): 0,400
- Cellules infectées Densité optique (virus HIV (LAV-1-BRU); 3,33 µg/ml, JOUR 18): 0,350
- Cellules infectées Densité optique (virus HIV (LAV-1-BRU); 3,33 µg/ml, day 7): 1,340
